In ChEMBL document CHEMBL1201862, “PubChem BioAssay data set” (2004):
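Following 48 hours of exposure in 96-well plates, responses at five concentrations were used to interpolate endpoints linearly. At the GI50, growth is halved.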 Activity calls are given as the source filed them. No stated cut-off is given here; in the data, active = GI50 up to about 1.1 µM and inactive = higher.

Assays:
Experiment in all cases: NCI tumour cell line growth inhibition, 48 h
BT-549 = test system: BT-549
CCRF-CEM = test system: CCRF-CEM
DU-145 = test system: DU-145
HCT-116 = test system: HCT-116
HCT-15 = test system: HCT-15
HOP-92 = test system: HOP-92
NCI/ADR-RES = test system: NCI/ADR-RES
OVCAR-4 = test system: OVCAR-4
PC-3 = test system: PC-3
SF-268 = test system: SF-268
SF-295 = test system: SF-295
SF-539 = test system: SF-539
SNB-19 = test system: SNB-19
SNB-75 = test system: SNB-75
SR = test system: SR
SW-620 = test system: SW-620
U-251 = test system: U-251
UACC-257 = test system: UACC-257
UO-31 = test system: UO-31
T47D = test system: T47D

| Structure (SMILES) | GI50 (BT-549) | GI50 (CCRF-CEM) | GI50 (DU-145) | GI50 (HCT-116) | GI50 (HCT-15) [µM] | GI50 (HOP-92) | GI50 (NCI/ADR-RES) | GI50 (OVCAR-4) | GI50 (PC-3) | GI50 (SF-268) | GI50 (SF-295) | GI50 (SF-539) | GI50 (SNB-19) | GI50 (SNB-75) | GI50 (SR) | GI50 (SW-620) | GI50 (U-251) | GI50 (UACC-257) | GI50 (UO-31) | GI50 (T47D) |
| --- | --- | --- | --- | --- | --- | --- | --- | --- | --- | --- | --- | --- | --- | --- | --- | --- | --- | --- | --- | --- |
| CN(C)c1ccc(/C=c2\c3ccccc3n3c2cc(-c2ccccc2)[n+]3C)cc1 | 0.0304 µM (active) | 0.0635 µM (active) | 0.222 µM (active) | 0.0853 µM (active) | 1.2 | 0.284 µM (active) | 4.45 µM (inactive) | 0.809 µM (active) | 0.0726 µM (active) | 0.261 µM (active) | 0.213 µM (active) | 0.0406 µM (active) | 0.0771 µM (active) | 0.061 µM (active) | 0.16 µM (active) | 0.119 µM (active) | 0.0322 µM (active) | 0.243 µM (active) | 0.383 µM (active) |  |
| CCN(CC)c1cc2c3c(c1)CCCN3CCC2 |  | > 10 µM (inactive) | > 10 µM (inactive) | > 10 µM (inactive) | > 10 | > 10 µM (inactive) | > 10 µM (inactive) | > 10 µM (inactive) | > 10 µM (inactive) | > 10 µM (inactive) | > 10 µM (inactive) | > 10 µM (inactive) | > 10 µM (inactive) | > 10 µM (inactive) | > 10 µM (inactive) | > 10 µM (inactive) | > 10 µM (inactive) | > 10 µM (inactive) | > 10 µM (inactive) | > 10 µM (inactive) |
| CC(C)C1=C(Cc2ccccc2)C(=O)O/C1=C\c1ccc(O)c(Cl)c1 | 22.2 µM (inactive) | 15.5 µM (inactive) | 18.2 µM (inactive) | 15.5 µM (inactive) | 16 |  | > 10 µM (inactive) | 14.7 µM (inactive) | 17.9 µM (inactive) | 16.6 µM (inactive) | 16 µM (inactive) | 18.6 µM (inactive) | 11.5 µM (inactive) | 16.9 µM (inactive) | 10.4 µM (inactive) | 19.1 µM (inactive) | 16.7 µM (inactive) | 18.8 µM (inactive) | 14.4 µM (inactive) |  |
| CNC(=O)c1nnn(C2CCCCC2)c1S |  | > 100 µM (inactive) | > 100 µM (inactive) | > 100 µM (inactive) | > 100 | > 100 µM (inactive) | > 100 µM (inactive) | > 100 µM (inactive) | > 100 µM (inactive) | > 100 µM (inactive) | > 100 µM (inactive) | 6.11 µM (inactive) | > 100 µM (inactive) | > 100 µM (inactive) | > 100 µM (inactive) | > 100 µM (inactive) | > 100 µM (inactive) | > 100 µM (inactive) | > 100 µM (inactive) | > 100 µM (inactive) |
| O=C1c2ccccc2-c2cc3ccccc3c(=O)n21 |  | > 100 µM (inactive) | > 100 µM (inactive) | > 100 µM (inactive) | > 100 |  | > 100 µM (inactive) |  | > 100 µM (inactive) | > 100 µM (inactive) | > 100 µM (inactive) | > 100 µM (inactive) | > 100 µM (inactive) | > 100 µM (inactive) | > 100 µM (inactive) | > 100 µM (inactive) |  | > 100 µM (inactive) | 49.1 µM (inactive) | > 100 µM (inactive) |
| CC[C@]1(Cc2ccc(OC)c(OC)c2)CN(S(=O)(=O)c2ccc(C)cc2)C[C@@H]1OC(C)=O |  | > 100 µM (inactive) | > 100 µM (inactive) |  | > 100 | 40.4 µM (inactive) | > 100 µM (inactive) | > 100 µM (inactive) | 75.7 µM (inactive) | > 100 µM (inactive) | 38.5 µM (inactive) | 69.5 µM (inactive) | > 100 µM (inactive) | 41.9 µM (inactive) | > 100 µM (inactive) | > 100 µM (inactive) | 65.6 µM (inactive) | > 100 µM (inactive) | > 100 µM (inactive) | 58.5 µM (inactive) |
| Cc1ccc2nc(-c3ccc(N)c(I)c3)sc2c1 | 97.7 µM (inactive) | 6.21 µM (inactive) |  | 54.6 µM (inactive) | 6.11 | 20.1 µM (inactive) | 72.3 µM (inactive) | 2.09 µM (inactive) | 8.49 µM (inactive) | 23.2 µM (inactive) | 19.1 µM (inactive) | 23.3 µM (inactive) | 19 µM (inactive) | 41.5 µM (inactive) | 4.2 µM (inactive) | 20.9 µM (inactive) | 26.1 µM (inactive) | 23.7 µM (inactive) | 7.06 µM (inactive) |  |
| c1ccc2cc3c(NC4=NCCO4)cccc3cc2c1 |  | 27.7 µM (inactive) | 78.7 µM (inactive) | 50 µM (inactive) | > 100 | 17.6 µM (inactive) | 75.2 µM (inactive) | 35.6 µM (inactive) | 45.1 µM (inactive) | 34.2 µM (inactive) | > 100 µM (inactive) | 97.5 µM (inactive) | 78.7 µM (inactive) | 24.8 µM (inactive) | 36 µM (inactive) | > 100 µM (inactive) | > 100 µM (inactive) | 48.5 µM (inactive) | 53 µM (inactive) |  |
| CC[C@H]1C[C@@H](O)[C@@H]2[C@H](O)[C@H](O)CN2C1 |  | > 100 µM (inactive) | > 100 µM (inactive) | > 100 µM (inactive) | > 100 | > 100 µM (inactive) | > 100 µM (inactive) | > 100 µM (inactive) | > 100 µM (inactive) | > 100 µM (inactive) | > 100 µM (inactive) | > 100 µM (inactive) | > 100 µM (inactive) | > 100 µM (inactive) |  | > 100 µM (inactive) | > 100 µM (inactive) | > 100 µM (inactive) |  | > 100 µM (inactive) |
| COc1ccc(C2=NN(C(=O)c3ccc(Cl)cc3)C(O)(c3cc(F)c(Cl)cc3Cl)C2)cc1OC (stereo not given) |  | 1.99 µM (inactive) | 8.51 µM (inactive) | 6.14 µM (inactive) | 8.28 | 13.2 µM (inactive) | 9.77 µM (inactive) | 18 µM (inactive) | 6.44 µM (inactive) | 21.2 µM (inactive) | 26 µM (inactive) | > 100 µM (inactive) |  |  |  | 6.97 µM (inactive) | 19.2 µM (inactive) | 31.3 µM (inactive) | 3.08 µM (inactive) | 6.27 µM (inactive) |
| O=C(OCC1OC(c2nn[nH]n2)C(OC(=O)c2ccccc2)C1OC(=O)c1ccccc1)c1ccccc1 (stereo not given) | > 100 µM (inactive) | 96.6 µM (inactive) | > 100 µM (inactive) | > 100 µM (inactive) | > 100 | > 100 µM (inactive) | > 100 µM (inactive) | > 100 µM (inactive) | > 100 µM (inactive) | 76.7 µM (inactive) | > 100 µM (inactive) | > 100 µM (inactive) | 32.7 µM (inactive) | 57 µM (inactive) |  | > 100 µM (inactive) | > 100 µM (inactive) | > 100 µM (inactive) | > 100 µM (inactive) |  |
| Clc1nc(Cl)c(Cl)c(-c2ccccc2)n1 | 2.41 µM (inactive) | 0.74 µM (active) |  |  | 11.4 |  | 5.62 µM (inactive) | 4.85 µM (inactive) | 10.5 µM (inactive) | 23.9 µM (inactive) | 3.93 µM (inactive) | 11.8 µM (inactive) | 15.6 µM (inactive) | 2.26 µM (inactive) | 0.322 µM (active) | 1.94 µM (inactive) | 15.1 µM (inactive) | 20.5 µM (inactive) | 18.1 µM (inactive) |  |
| Nc1ncc2c(n1)-c1ccccc1OC2N1CCOCC1 (stereo not given) |  | > 100 µM (inactive) | > 100 µM (inactive) | > 100 µM (inactive) | > 100 | > 100 µM (inactive) | > 100 µM (inactive) | > 100 µM (inactive) | > 100 µM (inactive) | > 100 µM (inactive) | > 100 µM (inactive) | > 100 µM (inactive) | > 100 µM (inactive) | 59.7 µM (inactive) | 52.7 µM (inactive) | > 100 µM (inactive) | > 100 µM (inactive) | > 100 µM (inactive) | > 100 µM (inactive) |  |
| N#C/C(=C\c1cc(Cl)cc(Cl)c1)c1ccccn1 | 4.71 µM (inactive) | 3.63 µM (inactive) | 70.6 µM (inactive) | 34.3 µM (inactive) | 4.75 |  | 3.93 µM (inactive) | 53 µM (inactive) | 11.3 µM (inactive) | 27.7 µM (inactive) | 10.5 µM (inactive) | 19.1 µM (inactive) | > 100 µM (inactive) | 5.55 µM (inactive) | 6.27 µM (inactive) | 15.6 µM (inactive) | 7.94 µM (inactive) | 82.8 µM (inactive) | 43.8 µM (inactive) |  |
| O=C1/C(=C/c2ccccc2)CCc2ccccc21 | 16.2 µM (inactive) | 4.02 µM (inactive) | 16.2 µM (inactive) | 15.1 µM (inactive) | 25.6 |  | 28.4 µM (inactive) | 14.8 µM (inactive) | 19 µM (inactive) | 19.7 µM (inactive) | 17.7 µM (inactive) | 16 µM (inactive) | 10.4 µM (inactive) | 17.3 µM (inactive) | 9.71 µM (inactive) | 13.9 µM (inactive) | 16.2 µM (inactive) | 16.1 µM (inactive) | 14.6 µM (inactive) |  |
| CC1=NN(C(=O)c2ccccc2O)C(=O)/C1=C/c1cccc([N+](=O)[O-])c1 |  | 2.77 µM (inactive) | 1.55 µM (inactive) | 0.463 µM (active) | 4.05 | 1.27 µM (inactive) | 6.81 µM (inactive) | 3.55 µM (inactive) | 7.06 µM (inactive) | 1.25 µM (inactive) | 0.507 µM (active) | 0.377 µM (active) | 0.385 µM (active) | 0.449 µM (active) | > 100 µM (inactive) | 3.44 µM (inactive) | 0.512 µM (active) | 5.73 µM (inactive) | 0.596 µM (active) | 17.3 µM (inactive) |
